From patent US6518243B1, “Desleucyl glycopeptide antibiotics and methods of making same” (Trustees of Princeton University, priority 1999, dated 2003)

Experiments:
S. aureus (ATCC 29213) = assay: Zone of inhibition screen, 96 well agar array format; format: cell-based; design: scale not given here
Summary of the method: (§1)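 Agar-array screen, 96-well; single compounds vs. strain panel (panel also incl. E. faecium ATCC 49624); antibacterial activity scored.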

E. faecalis (CL 4877) = assay: as above; format: cell-based; design: scale not given here; settings: zone of inhibition relative to 1 mg/ml stock solution of p-chlorobiphenylvancomycin
Summary of the method: as §1

[1] = zone of inhibition relative to 1 mg/ml stock solution of p-chlorobiphenylvancomycin
[2] = zone of inhibition relative to 1 mg/ml p-chlorobiphenylvancomycin

| Compound | zone score, S. aureus ATCC 29213 (S. aureus (ATCC 29213); [1]) | zone score, E. faecalis CL 4877 (E. faecalis (CL 4877)) | zone score, S. aureus ATCC 29213 (S. aureus (ATCC 29213); [2]) |
| --- | --- | --- | --- |
| C#CCC(NC(C)=O)C(=O)NC1C(=O)NC(CC(N)=O)C(=O)NC2C(=O)NC3C(=O)NC(C(=O)NC(C(=O)O)c4cc(O)cc(O)c4-c4cc3ccc4O)C(O)c3ccc(c(Cl)c3)Oc3cc2cc(c3OC2OC(CO)C(O)C(O)C2OC2CC(C)(NCc3ccc(-c4ccc(Cl)cc4)cc3)C(O)C(C)O2)Oc2ccc(cc2Cl)C1O (mixture of isomers) [Compound 177] | 2 | 2 | – |
| CC1OC(OC2C(Oc3c4cc5cc3Oc3ccc(cc3Cl)C(O)C3NC(=O)C(NC(=O)C5NC(=O)C(CC(N)=O)NC(=O)C(NC(=O)C(N)CC(=O)OC(C)(C)C)C(O)c5ccc(c(Cl)c5)O4)c4ccc(O)c(c4)-c4c(O)cc(O)cc4C(C(=O)O)NC3=O)OC(CO)C(O)C2O)CC(C)(NCc2ccc(-c3ccc(Cl)cc3)cc2)C1O (centres unmarked) [Compound 3] | 2 | 2 | – |
| C[C@H]1O[C@H](O[C@H]2[C@H](Oc3c4cc5cc3Oc3ccc(cc3Cl)[C@@H](O)[C@@H](NC(=O)C(N)CC3CCCCC3)C(=O)N[C@@H](CC(N)=O)C(=O)N[C@H]5C(=O)N[C@H]3C(=O)N[C@H](C(=O)N[C@@H](C(=O)O)c5cc(O)cc(O)c5-c5cc3ccc5O)[C@H](O)c3ccc(c(Cl)c3)O4)O[C@H](CO)[C@@H](O)[C@@H]2O)C[C@@](C)(NCc2ccc(-c3ccc(Cl)cc3)cc2)[C@H]1O (some centres unmarked) [Compound 4] | 2 | 2 | – |
| CC(NCCCCC(N)C(=O)NC1C(=O)NC(CC(N)=O)C(=O)NC2C(=O)NC3C(=O)NC(C(=O)NC(C(=O)O)c4cc(O)cc(O)c4-c4cc3ccc4O)C(O)c3ccc(c(Cl)c3)Oc3cc2cc(c3OC2OC(CO)C(O)C(O)C2OC2CC(C)(NCc3ccc(-c4ccc(Cl)cc4)cc3)C(O)C(C)O2)Oc2ccc(cc2Cl)C1O)=C1C(=O)CC(C)(C)CC1=O (centres unmarked) [Compound 39] | 2 | 2 | – |
| CC(=O)NCSCC(N)C(=O)NC1C(=O)NC(CC(N)=O)C(=O)NC2C(=O)NC3C(=O)NC(C(=O)NC(C(=O)O)c4cc(O)cc(O)c4-c4cc3ccc4O)C(O)c3ccc(c(Cl)c3)Oc3cc2cc(c3OC2OC(CO)C(O)C(O)C2OC2CC(C)(NCc3ccc(-c4ccc(Cl)cc4)cc3)C(O)C(C)O2)Oc2ccc(cc2Cl)C1O (centres unmarked) [Compound 49] | 2 | 2 | – |
| CC1OC(OC2C(Oc3c4cc5cc3Oc3ccc(cc3Cl)C(O)C3NC(=O)C(NC(=O)C5NC(=O)C(CC(N)=O)NC(=O)C(NC(=O)C(N)CCCNC(=N)N)C(O)c5ccc(c(Cl)c5)O4)c4ccc(O)c(c4)-c4c(O)cc(O)cc4C(C(=O)O)NC3=O)OC(CO)C(O)C2O)CC(C)(NCc2ccc(-c3ccc(Cl)cc3)cc2)C1O (centres unmarked) [Compound 90] | 2 | 2 | – |
| CC1OC(OC2C(Oc3c4cc5cc3Oc3ccc(cc3Cl)C(O)C(NC(=O)C3(C(N)=O)CC3)C(=O)NC(CC(N)=O)C(=O)NC5C(=O)NC3C(=O)NC(C(=O)NC(C(=O)O)c5cc(O)cc(O)c5-c5cc3ccc5O)C(O)c3ccc(c(Cl)c3)O4)OC(CO)C(O)C2O)CC(C)(NCc2ccc(-c3ccc(Cl)cc3)cc2)C1O (centres unmarked) [Compound 98] | 2 | 2 | – |
| CC(=O)Nc1ccc(C(=O)NC2C(=O)NC(CC(N)=O)C(=O)NC3C(=O)NC4C(=O)NC(C(=O)NC(C(=O)O)c5cc(O)cc(O)c5-c5cc4ccc5O)C(O)c4ccc(c(Cl)c4)Oc4cc3cc(c4OC3OC(CO)C(O)C(O)C3OC3CC(C)(NCc4ccc(-c5ccc(Cl)cc5)cc4)C(O)C(C)O3)Oc3ccc(cc3Cl)C2O)cc1NC(C)=O (centres unmarked) [Compound 104] | 2 | 2 | – |
| CC(=O)NCCCC(=O)NC1C(=O)NC(CC(N)=O)C(=O)NC2C(=O)NC3C(=O)NC(C(=O)NC(C(=O)O)c4cc(O)cc(O)c4-c4cc3ccc4O)C(O)c3ccc(c(Cl)c3)Oc3cc2cc(c3OC2OC(CO)C(O)C(O)C2OC2CC(C)(NCc3ccc(-c4ccc(Cl)cc4)cc3)C(O)C(C)O2)Oc2ccc(cc2Cl)C1O (centres unmarked) [Compound 107] | 2 | 2 | – |
| CC(=O)NC(C)C(=O)NC1C(=O)NC(CC(N)=O)C(=O)NC2C(=O)NC3C(=O)NC(C(=O)NC(C(=O)O)c4cc(O)cc(O)c4-c4cc3ccc4O)C(O)c3ccc(c(Cl)c3)Oc3cc2cc(c3OC2OC(CO)C(O)C(O)C2OC2CC(C)(NCc3ccc(-c4ccc(Cl)cc4)cc3)C(O)C(C)O2)Oc2ccc(cc2Cl)C1O (centres unmarked) [Compound 110] | 2 | 2 | – |
| CSCCC(NC(C)=O)C(=O)NC1C(=O)NC(CC(N)=O)C(=O)NC2C(=O)NC3C(=O)NC(C(=O)NC(C(=O)O)c4cc(O)cc(O)c4-c4cc3ccc4O)C(O)c3ccc(c(Cl)c3)Oc3cc2cc(c3OC2OC(CO)C(O)C(O)C2OC2CC(C)(NCc3ccc(-c4ccc(Cl)cc4)cc3)C(O)C(C)O2)Oc2ccc(cc2Cl)C1O (centres unmarked) [Compound 115] | 2 | 2 | – |
| CC(=O)N1CC(O)CC1C(=O)NC1C(=O)NC(CC(N)=O)C(=O)NC2C(=O)NC3C(=O)NC(C(=O)NC(C(=O)O)c4cc(O)cc(O)c4-c4cc3ccc4O)C(O)c3ccc(c(Cl)c3)Oc3cc2cc(c3OC2OC(CO)C(O)C(O)C2OC2CC(C)(NCc3ccc(-c4ccc(Cl)cc4)cc3)C(O)C(C)O2)Oc2ccc(cc2Cl)C1O (centres unmarked) [Compound 121] | 2 | 2 | – |
| CC1OC(OC2C(Oc3c4cc5cc3Oc3ccc(cc3Cl)C(O)C3NC(=O)C(NC(=O)C5NC(=O)C(CC(N)=O)NC(=O)C(NC(=O)CN(CCO)CCO)C(O)c5ccc(c(Cl)c5)O4)c4ccc(O)c(c4)-c4c(O)cc(O)cc4C(C(=O)O)NC3=O)OC(CO)C(O)C2O)CC(C)(NCc2ccc(-c3ccc(Cl)cc3)cc2)C1O (centres unmarked) [Compound 130] | 2 | 2 | – |
| CC(NC(=O)OC(C)(C)C)C(=O)NCC(=O)NCC(=O)NC1C(=O)NC(CC(N)=O)C(=O)NC2C(=O)NC3C(=O)NC(C(=O)NC(C(=O)O)c4cc(O)cc(O)c4-c4cc3ccc4O)C(O)c3ccc(c(Cl)c3)Oc3cc2cc(c3OC2OC(CO)C(O)C(O)C2OC2CC(C)(NCc3ccc(-c4ccc(Cl)cc4)cc3)C(O)C(C)O2)Oc2ccc(cc2Cl)C1O (centres unmarked) [Compound 131] | 2 | 2 | – |
| CC(NC(=O)OC(C)(C)C)C(=O)NCC(=O)N(C)CC(=O)NC1C(=O)NC(CC(N)=O)C(=O)NC2C(=O)NC3C(=O)NC(C(=O)NC(C(=O)O)c4cc(O)cc(O)c4-c4cc3ccc4O)C(O)c3ccc(c(Cl)c3)Oc3cc2cc(c3OC2OC(CO)C(O)C(O)C2OC2CC(C)(NCc3ccc(-c4ccc(Cl)cc4)cc3)C(O)C(C)O2)Oc2ccc(cc2Cl)C1O (centres unmarked) [Compound 132] | 2 | 2 | – |
| CC1OC(OC2C(Oc3c4cc5cc3Oc3ccc(cc3Cl)C(O)C3NC(=O)C(NC(=O)C5NC(=O)C(CC(N)=O)NC(=O)C(NC(=O)CCC(NC(=O)OC(C)(C)C)C(N)=O)C(O)c5ccc(c(Cl)c5)O4)c4ccc(O)c(c4)-c4c(O)cc(O)cc4C(C(=O)O)NC3=O)OC(CO)C(O)C2O)CC(C)(NCc2ccc(-c3ccc(Cl)cc3)cc2)C1O (centres unmarked) [Compound 137] | 2 | 2 | – |
| CC1OC(OC2C(Oc3c4cc5cc3Oc3ccc(cc3Cl)C(O)C3NC(=O)C(NC(=O)C5NC(=O)C(CC(N)=O)NC(=O)C(NC(=O)CNC(=O)CNC(=O)CNC(=O)OC(C)(C)C)C(O)c5ccc(c(Cl)c5)O4)c4ccc(O)c(c4)-c4c(O)cc(O)cc4C(C(=O)O)NC3=O)OC(CO)C(O)C2O)CC(C)(NCc2ccc(-c3ccc(Cl)cc3)cc2)C1O (centres unmarked) [Compound 139] | 2 | 2 | – |
| CC1OC(OC2C(Oc3c4cc5cc3Oc3ccc(cc3Cl)C(O)C(NC(=O)C(C)(C)NC(N)=O)C(=O)NC(CC(N)=O)C(=O)NC5C(=O)NC3C(=O)NC(C(=O)NC(C(=O)O)c5cc(O)cc(O)c5-c5cc3ccc5O)C(O)c3ccc(c(Cl)c3)O4)OC(CO)C(O)C2O)CC(C)(NCc2ccc(-c3ccc(Cl)cc3)cc2)C1O (centres unmarked) [Compound 190] | 2 | – | – |
| CSCCC(NC=O)C(=O)NC1C(=O)NC(CC(N)=O)C(=O)NC2C(=O)NC3C(=O)NC(C(=O)NC(C(=O)O)c4cc(O)cc(O)c4-c4cc3ccc4O)C(O)c3ccc(c(Cl)c3)Oc3cc2cc(c3OC2OC(CO)C(O)C(O)C2OC2CC(C)(NCc3ccc(-c4ccc(Cl)cc4)cc3)C(O)C(C)O2)Oc2ccc(cc2Cl)C1O (centres unmarked) [Compound 196] | 2 | – | – |
| CC1OC(OC2C(Oc3c4cc5cc3Oc3ccc(cc3Cl)C(O)C3NC(=O)C(NC(=O)C5NC(=O)C(CC(N)=O)NC(=O)C(NC(=O)CCC(=O)NN(C)C)C(O)c5ccc(c(Cl)c5)O4)c4ccc(O)c(c4)-c4c(O)cc(O)cc4C(C(=O)O)NC3=O)OC(CO)C(O)C2O)CC(C)(NCc2ccc(-c3ccc(Cl)cc3)cc2)C1O (centres unmarked) [Compound 203] | 2 | – | – |
| CC(C)=C(N)C(=O)NC1C(=O)NC(CC(N)=O)C(=O)NC2C(=O)NC3C(=O)NC(C(=O)NC(C(=O)O)c4cc(O)cc(O)c4-c4cc3ccc4O)C(O)c3ccc(c(Cl)c3)Oc3cc2cc(c3OC2OC(CO)C(O)C(O)C2OC2CC(C)(NCc3ccc(-c4ccc(Cl)cc4)cc3)C(O)C(C)O2)Oc2ccc(cc2Cl)C1O (centres unmarked) [Compound 216] | – | – | 2 |
| CC1OC(OC2C(Oc3c4cc5cc3Oc3ccc(cc3Cl)C(O)C(NC(=O)C3(N)CC3)C(=O)NC(CC(N)=O)C(=O)NC5C(=O)NC3C(=O)NC(C(=O)NC(C(=O)O)c5cc(O)cc(O)c5-c5cc3ccc5O)C(O)c3ccc(c(Cl)c3)O4)OC(CO)C(O)C2O)CC(C)(NCc2ccc(-c3ccc(Cl)cc3)cc2)C1O (centres unmarked) [Compound 218] | – | – | 2 |
| CC1OC(OC2C(Oc3c4cc5cc3Oc3ccc(cc3Cl)C(O)C3NC(=O)C(NC(=O)C5NC(=O)C(CC(N)=O)NC(=O)C(NC(=O)C(=O)c5ccco5)C(O)c5ccc(c(Cl)c5)O4)c4ccc(O)c(c4)-c4c(O)cc(O)cc4C(C(=O)O)NC3=O)OC(CO)C(O)C2O)CC(C)(NCc2ccc(-c3ccc(Cl)cc3)cc2)C1O (centres unmarked) [Compound 239] | – | – | 2 |
| CC1OC(OC2C(Oc3c4cc5cc3Oc3ccc(cc3Cl)C(O)C(NC(=O)C(F)(F)C(F)(F)C(F)(F)C(F)(F)F)C(=O)NC(CC(N)=O)C(=O)NC5C(=O)NC3C(=O)NC(C(=O)NC(C(=O)O)c5cc(O)cc(O)c5-c5cc3ccc5O)C(O)c3ccc(c(Cl)c3)O4)OC(CO)C(O)C2O)CC(C)(NCc2ccc(-c3ccc(Cl)cc3)cc2)C1O (centres unmarked) [Compound 311] | – | – | 2 |
